Legend:
Type in all cases: in vivo
Alopecurus myosuroides [1] = test: Test Example 5: herbicidal effect by foliage application, plastic box (symbol J); conditions: 3 weeks after application
Summary of the method: (§1)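 Sowing in sterilized diluvial soil, 14 days' greenhouse growth at 25° C. to 30° C., then uniform small-sprayer foliar application of aqueous emulsion dilution; plants scored three weeks afterwards.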

Leptochloa chinensis = test: Test Example 3: herbicidal effect by foliage application, Wagner pot (symbol D)
Summary of the method: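 Rating at 3 weeks post-spray, by defined criteria. Treatment: emulsion diluted with water to a predetermined amount, applied evenly to foliage of 14-day-old plants raised in alluvial soil flooded 0.1–0.5 cm deep at 25–30 °C, rice co-sown.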

corn = test: Test Example 5: effect on crop by foliage application, plastic box (symbol c); conditions: 3 weeks after application
Summary of the method: (§2)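 Diluvial soil, sterilized and boxed (21 × 13 × 7 cm), received spot-sown seed covered by about 1.5 cm soil; plants were then greenhouse-grown at 25–30° C.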

Lolium multiflorum Lam. = test: Test Example 5: herbicidal effect by foliage application, plastic box (symbol K); conditions: 3 weeks after application
Summary of the method: as §1

wheat [2] = test: Test Example 5: effect on crop by foliage application, plastic box (symbol e); conditions: 3 weeks after application
Summary of the method: as §2

Scirpus juncoides = test: Test Example 2: herbicidal activity, application during weed generation in submerged conditions (symbol B); conditions: Table 23, grade 0-5 by criteria of Test Example 1
Summary of the method: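 Flooded-soil post-emergence test: emulsion of compound, water-diluted to target rate, applied to paddy water surface at 1–2 leaf stage of mixed-sown weeds (alluvial soil, 4 cm water, 25–30° C. greenhouse); visual rating 3 weeks after application.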

Veronica persica = test: Test Example 4: herbicidal effect by soil treatment (symbol R)
Summary of the method: (§3)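 Seeds were sown in sterilized diluvial soil, covered with about 1.5 cm of soil, and the soil surface was sprayed with a water-diluted emulsion of the compound at a predetermined rate. Plants grew in a greenhouse at 25° C. to 30° C.; effects were scored visually 3 weeks after application.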

transplanted rice plant = test: Test Example 1: effect on crop, application before weed generation in submerged conditions (symbol a)
Summary of the method: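 Alluvial soil pots flooded to 4 cm water, sown with Echinochloa oryzacola, Scirpus juncoides and Monochoria vaginalis, then transplanted with 2.5 leaf stage rice seedlings; pre-emergence application. Greenhouse 25° C. to 30° C.; scored 0–5 by herbicidal ratio 3 weeks after application.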

wheat [3] = test: Test Example 4: effect on crop by soil treatment (symbol e)
Summary of the method: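 The test used sterilized diluvial soil. Seed was set down in spots and overlaid with about 1.5 cm of soil before growth in a greenhouse kept at 25° C. to 30° C.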

Alopecurus myosuroides [4] = test: Test Example 4: herbicidal effect by soil treatment (symbol J)
Summary of the method: as §3

Digitaria ciliaris = test: Test Example 5: herbicidal effect by foliage application, plastic box (symbol F); conditions: 3 weeks after application
Summary of the method: as §1

soybean = test: Test Example 5: effect on crop by foliage application, plastic box (symbol d); conditions: 3 weeks after application
Summary of the method: as §2

Galium spurium = test: Test Example 5: herbicidal effect by foliage application, plastic box (symbol Q); conditions: 3 weeks after application
Summary of the method: as §1

Avena fatua = test: Test Example 4: herbicidal effect by soil treatment (symbol I)
Summary of the method: as §3

[5] = application herbicide amount 320 g/ha
[6] = application herbicide amount 102 g/ha

Row | Compound | J: Alopecurus myosuroides, herbicidal effect (criteria 0-5) (Alopecurus myosuroides [1]; 320 g/ha) | herbicidal effect on D (Leptochloa chinensis), grade 0-5 (Leptochloa chinensis; [5]) | c: corn, effect on crop (criteria 0-5) (corn; 320 g/ha) | K: Lolium multiflorum Lam., herbicidal effect (criteria 0-5) (Lolium multiflorum Lam.; 320 g/ha) | e: wheat, effect on crop (criteria 0-5) (wheat [2]; 320 g/ha) | Herbicidal effect grade, B: Scirpus juncoides (Scirpus juncoides; [5]) | R: Veronica persica, herbicidal effect grade (Veronica persica; 320 g/ha) | Effect grade on crop, a: transplanted rice plant (transplanted rice plant; [5]) | e: wheat, effect grade on crop (wheat [3]; 320 g/ha) | J: Alopecurus myosuroides, herbicidal effect grade (Alopecurus myosuroides [4]; 320 g/ha) | F: Digitaria ciliaris, herbicidal effect (criteria 0-5) (Digitaria ciliaris; 320 g/ha) | d: soybean, effect on crop (criteria 0-5) (soybean; 320 g/ha) | Q: Galium spurium, herbicidal effect (criteria 0-5) (Galium spurium; 320 g/ha) | I: Avena fatua, herbicidal effect grade (Avena fatua; 320 g/ha) | other results
1 | CC(CC1CC(O)=C(c2c(C)cc(C)cc2C)C1=O)=NOCc1ccc(Cl)cc1 (stereo not shown) [1-137] | 5 (Herbicidal ratio of 90% or more (almost completely withered)) | 5 (Herbicidal ratio of 90% or more (almost completely withered)) | 3 (Herbicidal ratio of 40% or higher and lower than 70%) | 5 (Herbicidal ratio of 90% or more (almost completely withered)) | 3 (Herbicidal ratio of 40% or higher and lower than 70%) | 4 (Herbicidal ratio of 70% or higher and lower than 90%) | 0 (Herbicidal ratio of 5% or lower (almost no effect)) | 5 (Herbicidal ratio of 90% or more (almost completely withered)) | 0 (Herbicidal ratio of 5% or lower (almost no effect)) | 5 (Herbicidal ratio of 90% or more (almost completely withered)) | 5 (Herbicidal ratio of 90% or more (almost completely withered)) | 0 (Herbicidal ratio of 5% or lower (almost no effect)) | 0 (Herbicidal ratio of 5% or lower (almost no effect)) | 2 (Herbicidal ratio of 20% or higher and lower than 40%) | –
2 | CC(CC1CC(O)=C(c2c(C)cc(C)cc2C)C1=O)=NOCc1ccc(C(F)(F)F)cc1 (stereo not shown) [1-138] | 5 (Herbicidal ratio of 90% or more (almost completely withered)) | 2 (Herbicidal ratio of 20% or higher and lower than 40%) | 2 (Herbicidal ratio of 20% or higher and lower than 40%) | 5 (Herbicidal ratio of 90% or more (almost completely withered)) | 3 (Herbicidal ratio of 40% or higher and lower than 70%) | 4 (Herbicidal ratio of 70% or higher and lower than 90%) | 0 (Herbicidal ratio of 5% or lower (almost no effect)) | 5 (Herbicidal ratio of 90% or more (almost completely withered)) | 0 (Herbicidal ratio of 5% or lower (almost no effect)) | 5 (Herbicidal ratio of 90% or more (almost completely withered)) | 5 (Herbicidal ratio of 90% or more (almost completely withered)) | 0 (Herbicidal ratio of 5% or lower (almost no effect)) | 3 (Herbicidal ratio of 40% or higher and lower than 70%) | 0 (Herbicidal ratio of 5% or lower (almost no effect)) | –
3 | CCC(Oc1ccc2ncc(Br)cc2c1)C(=O)OC1=C(c2c(C)cc(C)cc2C)C(=O)C(CC(C)=NOC)C1 (stereo not shown) [1-140] | 5 (Herbicidal ratio of 90% or more (almost completely withered)) | 5 (Herbicidal ratio of 90% or more (almost completely withered)) | 4 (Herbicidal ratio of 70% or higher and lower than 90%) | 5 (Herbicidal ratio of 90% or more (almost completely withered)) | 5 (Herbicidal ratio of 90% or more (almost completely withered)) | 5 (Herbicidal ratio of 90% or more (almost completely withered)) | 0 (Herbicidal ratio of 5% or lower (almost no effect)) | 5 (Herbicidal ratio of 90% or more (almost completely withered)) | 5 (Herbicidal ratio of 90% or more (almost completely withered)) | 5 (Herbicidal ratio of 90% or more (almost completely withered)) | 5 (Herbicidal ratio of 90% or more (almost completely withered)) | 3 (Herbicidal ratio of 40% or higher and lower than 70%) | 2 (Herbicidal ratio of 20% or higher and lower than 40%) | 4 (Herbicidal ratio of 70% or higher and lower than 90%) | –
4 | CC(=O)CC1CC(O)=C(c2c(C)cc(C)cc2C)C1=O (stereo not shown) [2-001, 3-hydroxy-2-mesityl-5-(2-oxopropyl)cyclopent-2-enone] | – | – | – | – | – | – | – | – | – | – | – | – | – | – | J: Alopecurus myosuroides, herbicidal effect grade (Alopecurus myosuroides [1]; 102 g/ha): 5 (Herbicidal ratio of 90% or more (almost completely withered)); herbicidal effect on D (Leptochloa chinensis), grade 0-5 (Leptochloa chinensis; [6]): 5 (Herbicidal ratio of 90% or more (almost completely withered)); c: corn, effect on crop grade (corn; 102 g/ha): 3 (Herbicidal ratio of 40% or higher and lower than 70%); K: Lolium multiflorum Lam., herbicidal effect grade (Lolium multiflorum Lam.; 102 g/ha): 5 (Herbicidal ratio of 90% or more (almost completely withered)); e: wheat, effect on crop grade (wheat [2]; 102 g/ha): 0 (Herbicidal ratio of 5% or lower (almost no effect)); Herbicidal effect grade, B: Scirpus juncoides (Scirpus juncoides; [6]): 0 (Herbicidal ratio of 5% or lower (almost no effect)); R: Veronica persica, herbicidal effect grade (Veronica persica; 102 g/ha): 0 (Herbicidal ratio of 5% or lower (almost no effect)); Effect grade on crop, a: transplanted rice plant (transplanted rice plant; [6]): 4 (Herbicidal ratio of 70% or higher and lower than 90%); e: wheat, effect grade on crop (wheat [3]; 102 g/ha): 0 (Herbicidal ratio of 5% or lower (almost no effect)); J: Alopecurus myosuroides, herbicidal effect grade (Alopecurus myosuroides [4]; 102 g/ha): 4 (Herbicidal ratio of 70% or higher and lower than 90%); F: Digitaria ciliaris, herbicidal effect grade (Digitaria ciliaris; 102 g/ha): 5 (Herbicidal ratio of 90% or more (almost completely withered)); d: soybean, effect on crop grade (soybean; 102 g/ha): 0 (Herbicidal ratio of 5% or lower (almost no effect)); Q: Galium spurium, herbicidal effect grade (Galium spurium; 102 g/ha): 3 (Herbicidal ratio of 40% or higher and lower than 70%); I: Avena fatua, herbicidal effect grade (Avena fatua; 102 g/ha): 0 (Herbicidal ratio of 5% or lower (almost no effect))
5 | CC#Cc1cc(C)c(C2=C(O)CC(CC(=NOC)C(C)C)C2=O)c(C)c1 (stereo not shown) [9-006] | – | – | – | – | – | 4 (Herbicidal ratio of 70% or higher and lower than 90%) | – | – | – | – | – | – | – | – | J: Alopecurus myosuroides, herbicidal effect grade (Alopecurus myosuroides [1]; 320 g/ha): 5 (Herbicidal ratio of 90% or more (almost completely withered)); D (Leptochloa chinensis) herbicidal effect grade (Leptochloa chinensis; application herbicide amount 320 g/ha, Table 24): 5 (Herbicidal ratio of 90% or more (almost completely withered)); c: corn, effect on crop grade (corn; 320 g/ha): 5 (Herbicidal ratio of 90% or more (almost completely withered)); K: Lolium multiflorum Lam., herbicidal effect grade (Lolium multiflorum Lam.; 320 g/ha): 5 (Herbicidal ratio of 90% or more (almost completely withered)); e: wheat, effect on crop grade (wheat [2]; 320 g/ha): 5 (Herbicidal ratio of 90% or more (almost completely withered)); Herbicidal effect grade, R: Veronica persica (Veronica persica; [5]): 4 (Herbicidal ratio of 70% or higher and lower than 90%); a (transplanted rice plant) effect on crop grade (transplanted rice plant; [5]): 5 (Herbicidal ratio of 90% or more (almost completely withered)); Effect on crop grade, e: wheat (wheat [3]; [5]): 5 (Herbicidal ratio of 90% or more (almost completely withered)); Herbicidal effect grade, J: Alopecurus myosuroides (Alopecurus myosuroides [4]; [5]): 5 (Herbicidal ratio of 90% or more (almost completely withered)); F: Digitaria ciliaris, herbicidal effect grade (Digitaria ciliaris; 320 g/ha): 5 (Herbicidal ratio of 90% or more (almost completely withered)); d: soybean, effect on crop grade (soybean; 320 g/ha): 0 (Herbicidal ratio of 5% or lower (almost no effect)); Q: Galium spurium, herbicidal effect grade (Galium spurium; 320 g/ha): 0 (Herbicidal ratio of 5% or lower (almost no effect)); Herbicidal effect grade, I: Avena fatua (Avena fatua; [5]): 4 (Herbicidal ratio of 70% or higher and lower than 90%)

Source: patent US11000033B2, “Ketone or oxime compound, and herbicide” (NISSAN CHEMICAL CORPORATION, priority 2014, dated 2021)
